{"source": "patent US20090069276A1", "about": "“Treatment, prevention and amelioration of pulmonary disorders associated with chemotherapy or radiotherapy with active vitamin D compounds or mimics thereof” (Novacea, Inc., priority 2005, published 2009)", "key": {"[1]": {"details": "in vivo; cited from earlier work"}, "[2]": {"system": "patients with androgen independent prostate cancer", "details": "Taxotere 36 mg/m^2 weekly, calcitriol 45 μg weekly by HDPA", "from_the_text": "Two hundred fifty patients with androgen independent prostate cancer were enrolled in a randomized placebo controlled trial at 48 centers in the United States and Canada. All patients in the study received chemotherapy treatment with weekly Taxotere®, a drug in the taxoid class of chemotherapeutic agents. […] Oral dexamethasone was also given along with the Taxotere® to minimize certain side effects (allergic reactions and fluid retention) associated with Taxotere®.\nIn addition to Taxotere® and dexamethasone, half of the patients were randomly treated with calcitriol and the other half received a placebo. Calcitriol was administered as three capsules of 15 μg each once a week on the day prior to chemotherapy. […] The same Taxotere® dose of 36 mg/m^2 body surface area was administered to the patients receiving Taxotere® and placebo or Taxotere® in combination with calcitriol. Drugs were administered for three weeks out of a four week cycle, with calcitriol being administered on days 1, 7, and 21 and Taxotere® being administered on days 2, 8, and 22."}, "[3]": {"system": "patients", "details": "administered doses; Glover 1988; cited from earlier work"}, "[4]": {"system": "cancer patients", "details": "cited from earlier work"}, "[5]": {"assay": "Solubility study of calcitriol in the formulations (light microscopy)", "assay_type": "physicochemical", "details": "each formulation of Table 3; prepared at 50° C., cooled to room temperature; highest concentration tested", "procedure": "To further assess the formulations of calcitriol, a solubility study was conducted to evaluate the amount of calcitriol soluble in each formulation. Calcitriol concentrations from 0.1 to 0.6 μg calcitriol/mg fomulation were prepared by heating the formulations to 50° C. followed by addition of the appropriate mass of calcitriol. The formulations were then allowed to cool to room temperature and the presence of undissolved calcitriol was determined by a light microscope with and without polarizing light. For each formulation, calcitriol was soluble at the highest concentration tested, 0.6 μg calcitriol/mg formulation."}, "[6]": {"system": "cancer patients", "details": "cited from earlier work; for Patients who developed pneumonia: refractory chronic lymphocytic leukemia"}, "[7]": {"details": "acute promyelocytic leukemia, Tallman 1997"}}, "note": "Where two headings read alike, the source gives them in different places."}
{"compound": "C=C1/C(=C\\C=C2/CCC[C@]3(C)C([C@H](C)CC#CC(C)(C)O)=CC[C@@H]23)C[C@@H](O)C[C@@H]1O", "note": "[Ro23-7553]", "values": [{"measurement": "Hypercalcemic effect, in words", "setting": "[1]", "result": "reduced hypercalcemic effect"}]}
{"compound": "CC(=O)O[C@@]12CO[C@@H]1C[C@H](O)[C@@]1(C)C(=O)[C@H](O)C3=C(C)[C@@H](OC(=O)[C@H](O)[C@@H](NC(=O)OC(C)(C)C)c4ccccc4)C[C@@](O)([C@@H](OC(=O)c4ccccc4)[C@H]21)C3(C)C", "note": "[Taxotere®]", "values": [{"measurement": "Patients hospitalized for dyspnea", "setting": "[2]", "result": "four"}, {"measurement": "Patients who developed ARDS", "setting": "[2]", "result": "One"}]}
{"compound": "NCCCNCCSP(=O)(O)O", "note": "[WR 2721, S-2-(3-aminopropylamino)ethylphosphorothioic acid]", "values": [{"measurement": "Patients with emesis", "setting": "[3]", "result": 48, "unit": "%"}, {"measurement": "Patients with hypotension", "setting": "[3]", "result": 7, "unit": "%"}]}
{"compound": "CC1=C(/C=C/C(C)=C/C=C/C(C)=C/C(=O)O)C(C)(C)CCC1", "note": "[all-trans-retinoic acid]", "values": [{"measurement": "Patients who developed grade III or IV pulmonary toxicity (total)", "setting": "[4]; [7]", "result": "Twenty"}, {"measurement": "Patients with lethal pulmonary toxicity", "setting": "[4]; [7]", "result": 2, "unit": "%"}, {"measurement": "Patients with life-threatening pulmonary toxicity", "setting": "[4]; [7]", "result": 11, "unit": "%"}, {"measurement": "Patients with severe pulmonary toxicity", "setting": "[4]; [7]", "result": 7, "unit": "%"}]}
{"compound": "C=C1/C(=C\\C=C2/CCC[C@]3(C)[C@@H]([C@H](C)CCCC(C)(C)O)CC[C@@H]23)C[C@@H](O)C[C@@H]1O", "note": "[calcitriol, 1α,25-hydroxyvitamin D3]", "values": [{"measurement": "Calcitriol soluble in formulation", "setting": "[5]", "result": "≥ 0.6 μg calcitriol/mg formulation"}]}
{"compound": "Nc1nc(F)nc2c1ncn2[C@@H]1O[C@H](COP(=O)(O)O)[C@@H](O)[C@@H]1O", "note": "[fludarabine phosphate]", "values": [{"measurement": "Patients who developed pneumonia", "setting": "[6]; 15-25 mg/m^2 daily for five days every 28 days", "result": 22, "unit": "%"}, {"measurement": "Patients who developed pneumonia", "setting": "[6]; 22-40 mg/m^2 daily for five days every 28 days", "result": 16, "unit": "%"}]}
{"compound": "Nc1ccn([C@@H]2O[C@H](CO)[C@@H](O)C2(F)F)c(=O)n1", "note": "[gemcitabine]", "values": [{"measurement": "Patients with grade III-IV respiratory toxicity", "setting": "[4]; out of 40 bladder cancer patients, 1200 mg/m^2 IV weekly times three on a 4-week cycle, Stadler 1997", "result": 2, "unit": "patients"}]}
{"compound": "gemtuzumab: cancer drug given to acute myelogenous patients; product Mylotarg™, Wyeth-Ayerst", "values": [{"measurement": "Patients with grade III or IV pneumonia", "setting": "[6]; acute myelogenous patients, 9 mg/m^2 IV over 2 hours, two doses 14 days apart, Mylotarg package insert", "result": 7, "unit": "%"}]}
